{"source": "patent US7851436B2", "about": "“Inhibition of migration and induction of cell death by the type II collagen amino propeptides” (Washington University, priority 2007, dated 2010)", "key": {"[1]": {"test_system": "normal human articular chondrocytes", "test": "Cell survival assay in normal human articular chondrocytes", "type": "cell-based", "conditions": "high-density monolayers", "protocol": "(§1) Cell Culture. Human Chondrosarcoma cell line (Ch-1) was isolated from a portion of chondrosarcoma tumor. The Ch-1 cell line was maintained in RPMI-1640 supplemented with 10% FBS and at 37° C. in a humidified, 5% CO2 atmosphere. Human chondrocytes were obtained from Dr. Davis Adkisson (ISTO Technologies, St. Louis) or isolated from macroscopically intact tissue obtained from total joint arthroplasty as described (Bassleer et al., 1998). HeLa 229 cells and MDA-MB 231 cell lines were provided by Dr. Kathy Weilbaecher (Washington University) and were cultured in RPMI medium supplemented with 10% FBS. HUVEC cells were a gift from Dr. William Frazier (Washington University) and were cultured in M199 Earle's medium with 10 units/ml of penicillin, 5 μg/ml streptomycin and 0.25 μg/ml Fungizone supplemented with 10% FBS, 0.1 mg/ml L-glutamine, 25 mM Hepes, 16 units/ml of heparin (Sigma) and 0.1 mg/ml endothelial cell mitogen (Biochemical Technologies).\nDetection of Cell Death. […] Cells were monitored by light microscopy and images were digitally photographed using a Q capture Retiga 2000R camera. Quantification of cells remaining in the well was performed by washing with PBS for three times, fixing with 4% paraformaldehyde. The cells per field (×400) were counted for three field per well (3 wells per measurement). The mean number and standard deviation (SD) were calculated."}, "Ch-1 cells [2]": {"test_system": "Ch-1 cells", "test": "Detection of cell death in Ch-1 cells", "type": "cell-based, human", "conditions": "0.8 μM", "protocol": "as §1\n(§2) Detection of Cell Death. Cells were cultured to confluence in a 24-well plate pre-coated with type I collagen, fibronectin (Sigma), and ECM Matrigel (Becton Dickinson). Proteins in serum-free medium were added to the cells. Cells were monitored by light microscopy and images were digitally photographed using a Q capture Retiga 2000R camera. Quantification of cells remaining in the well was performed by washing with PBS for three times, fixing with 4% paraformaldehyde. The cells per field (×400) were counted for three field per well (3 wells per measurement). The mean number and standard deviation (SD) were calculated."}, "Ch-1 cells [3]": {"test_system": "Ch-1 cells", "test": "Cell adhesion assay (Ch-1 cells on wells coated with recombinant proteins)", "type": "cell-based, human", "conditions": "wells coated with recombinant protein", "protocol": "Cell Adhesion Assay. Cell adhesion assays were performed using a spectrometric method. A 96-well plate was coated at 4° C. overnight with recombinant proteins. Wells were washed three times with RPMI-1640 medium containing 10% FBS. Ch-1 cells were harvested with limited trypsin digestion and plated at 5×10^4 cells per well in RPMI-1640 medium supplemented with 10% FBS for an hours. Proteins were added and incubation continued for 1 hour. The wells were washed three times with pre-warmed PBS to remove non-adherent cells. The adherent cells were fixed with 4% paraformaldehyde in PBS for 10 minutes at room temperature and stained with 0.5% toluidine blue for 5 minutes. The wells were rinsed with water and cells were solubilized with 0.1% SDS. Absorbance at 595 nm was recorded on a SpectraMax plate reader. Synthetic blocking peptides and antibodies to αVβ3 and αVβ5 integrin were pre-incubated with cells for 15 to 30 mins before they were added onto the wells in the inhibition assays.\nCell Culture. Human Chondrosarcoma cell line (Ch-1) was isolated from a portion of chondrosarcoma tumor (Chansky et al., J Orthop Res. (1998) 16(5):521-30). The Ch-1 cell line was maintained in RPMI-1640 supplemented with 10% FBS and at 37° C. in a humidified, 5% CO2 atmosphere."}, "β1, α4, and α5 integrin": {"test_system": "β1, α4, and α5 integrin", "test": "Cell surface labeling and GST pull-down with immunoblotting (other integrins)", "type": "binding, human", "conditions": "b23: β1 only; b113: β1, α4 and α5", "protocol": "Immunoblotting. Western blotting was performed as described (7). Blots were probed with the following primary antibodies: rabbit anti αV, α2, α3, α5, β1, β3, β5 integrin and goat anti actin (Saint Cruz), chicken anti PIIBNP antiserum, and mouse anti exon 2 antiserum.\nCell Surface labeling and GST Pull-down Assay. Ch-1 cells were incubated with EZ-link Sulfo-NHS-Biotin reagent for 30 mins. according to the product instruction (Sigma). After 3 washes with 0.1 M glycine in PBS, the cells were lysed with a lysis buffer described above. The lysate was incubated with glutathione derivatized agarose beads previously bound with GST, PIIANP, PIIBNP or mPIIBNP for 1 hr. at RT. […] The membrane was washed and incubated with antibodies and then incubated with a secondary antibody coupled to horseradish peroxidase. The antibody complex was visualized by enhanced chemiluminescence."}, "siRNA-treated Ch-1 cells": {"test_system": "siRNA-treated Ch-1 cells", "test": "Cell death in integrin αV siRNA-treated Ch-1 cells", "type": "cell-based, human", "conditions": "0.8 μM, serum-free medium, 24 hrs", "protocol": "as §2\nSiRNA Interference. Ch-1 cells were grown to 60-80% confluence in 6 well plates in Opti-Mem medium (Invitrogen) without antibiotics and serum. A reported method (6) is used in the design of siRNAs, sense and antisense oligonucleotides. The final concentration of oligonucleotides was 0.05 μM. Transfection was performed using a lipofectamine kit (InVitrogen). Half of the wells were stimulated with 200 ng/ml PMA (phorbol 12-myristate 13-acetate) after 4 hours incubation with oligonucleotides. Total RNA was collected via the TriZol method after incubation for 44 hours. 1 μg of total RNA was reverse transcribed with Superscript RT II in a 40 μl volume. […] Bands were quantified with Image Quant software."}, "Ch-1 cells [4]": {"test_system": "Ch-1 cells", "test": "Migration of Ch-1 cells", "type": "cell-based, human", "conditions": "data not shown"}, "rings of rat aorta": {"test_system": "rings of rat aorta", "test": "Aortic ring formation assay", "protocol": "FIG. 8 depicts a graph and photograph showing rat aortic ring formation. Angiogenesis was assayed by culturing rings of rat aorta in three-dimensional collagen gel. The culture was performed at 37° C. in a humidified environment for a week in the presence FGF and mPIIBNP or PIIBNP (0.1 to 3 mM). The microvessel outgrowth was examined and visualized every second day with an Olympus microscope. The pictures were taken before the measurement of the microvessels. (FIG. 8A) The length of microvessels was measured and total length for each measurement was added (FIG. 8B). PIIBNP inhibited aortic ring formation, with an IC50 of less than 0.1 μM.\nAortic Ring Formation Assay. Angiogenesis was assayed by culturing rings of rat aorta in three-dimensional collagen gels as reported. The cultures were kept at 37° C. in a humidified environment for a week in the presence of FGF and GST or PIIBNP (0.1-10 μM). The microvessel outgrowth was examined every second day with an Olympus microscope. The length of microvessels was measured and total length for each measurement was added."}}, "note": "“Also recorded” adds a separate entry of the source."}
{"substance": "PIIBNP: Recombinant human Type IIB procollagen NH2-propeptide (exons 3-8, lacking exon 2), expressed as GST fusion protein", "values": [{"measurement": "induction of cell death in normal chondrocytes", "setting": "[1]", "result": "did not induce cell death"}, {"measurement": "cell survival", "setting": "Ch-1 cells [2]", "result": "20-30%"}, {"measurement": "induction of cell death in Ch-1 cells", "setting": "Ch-1 cells [2]; serum free medium, 24 hrs, type I collagen, fibronectin or Matrigel coated plates", "result": "resulted in cell death in a concentration and time-dependent manner; also recorded: induced cell death"}, {"measurement": "adhesion to Ch-1 cells", "setting": "Ch-1 cells [3]", "result": "shown to adhere"}, {"measurement": "adhesion to Ch-1 cells", "setting": "Ch-1 cells [3]; listed as GST-PIIBNP", "result": "strong binding"}, {"measurement": "reaction of integrin antibodies with material pulled out by PIIBNP", "setting": "β1, α4, and α5 integrin", "result": "did not react"}, {"measurement": "induction of cell death in αV siRNA-treated Ch-1 cells", "setting": "siRNA-treated Ch-1 cells", "result": "not able to induce cell death; also recorded: did not induce cell death"}, {"measurement": "inhibition of migration of Ch-1 cells", "setting": "Ch-1 cells [4]", "result": "can inhibit migration"}, {"measurement": "inhibition of endothelial outgrowth from rat aorta", "setting": "rings of rat aorta; freshly isolated rat aorta", "result": "able to inhibit endothelial outgrowth in a concentration dependent manner"}, {"measurement": "IC50", "setting": "rings of rat aorta; three-dimensional collagen gel, FGF, a week, read-out: IC50 of inhibition of aortic ring formation", "result": "< 100", "unit": "nM"}]}
